Assay: Stability of compound A alone in a solid state to temperature, humidity
Assay type: physicochemical

stability to temperature, humidity and the like: stable
Structure (SMILES): CONC(=O)Nc1ccc(-c2sc3c(c2CN(C)C)c(=O)n(-c2ccc(OC)nn2)c(=O)n3Cc2c(F)cccc2F)cc1 [compound A, N-(4-(1-(2,6-difluorobenzyl)-5-((dimethylamino)methyl)-3-(6-methoxy-3-pyridazinyl)-2,4-dioxo-1,2,3,4-tetrahydrothieno[2,3-d]pyrimidin-6-yl)phenyl)-N′-methoxyurea]
